The values below come from patent US20240417411A1, “COMPOUNDS AND METHODS FOR TREATMENT OF VIRAL INFECTIONS” (priority 2023, published 2024).

One series deals with SARS-CoV2-NLuc. Nature of the series: microbe, parasite or virus in culture. It is filed as cell-based, SARS Coronavirus 2. As to conditions: Severe acute respiratory syndrome coronavirus 2, 48 h, read-out: SARS-CoV2 EC50 (nM).
In another series the test system is RSV-Luc5. Nature of the series: microbe, parasite or virus in culture. It is filed as cell-based. As to conditions: human respiratory syncytial virus, NHBE, 72 h, read-out: RSV NHBE EC50 (nM).
Series [1] in a line: in vitro. It is filed as cell-based. As to conditions: human. On the procedure:
Example C: CC50 MT4 Cytotoxicity of the compounds was determined in uninfected cells using the cell viability reagent in a similar fashion as described before for other cell types ([…] et al., Antimicrob Agents Chemother. 2008,52(2):655-65). […] Cells were cultured for 4-5 days at 37° C. Following the incubation, the cells were allowed to equilibrate to 25° C., and cell viability was determined by adding Cell-Titer Glo viability reagent. The mixture was incubated for 10 min, and the luminescence signal was quantified using an Envision plate reader. Untreated cell and cells treated at 2 μM puromycin (Sigma, St. Louis, MO) serve as 100% and 0% cell viability control, respectively. The percent of cell viability was calculated for each tested compound concentration relative to the 0% and 100% controls and the CC50 value was determined by non-linear regression as a compound concentration reducing the cell viability by 50%.

Series [2] in a line: in vitro. It is filed as in vitro ADME. As to conditions: human, s9, pH 7.4. As for the experimental part:
Example D: GI S9 Stability […] The S9 metabolic reactions were initiated by the addition of the substrates to the S9 reaction mixture to a final concentration of 2 μM. […] Aliquots ([…]) of the diluted supernatant were analyzed on a Thermo Q-Exactive mass spectrometer as described below. Example F: Liquid Chromatography/Mass Spectroscopy Methods for S9 and Plasma Stability Quantification of test compounds, Reference Compound A (S9 stability assay nucleoside metabolite), and controls was performed by analyte/internal standard peak area ratio (PAR) values measured on a Thermo Q-Exactive mass spectrometer coupled to a Dionex UltiMate 3000 HPLC with a Leap Technologies HTC PAL autosampler. […] Mobile phase A consisted of 0.1% (v/v) formic acid in water. Mobile phase B consisted of 0.1% (v/v) formic acid in acetonitrile. Elution of analytes was achieved by a series of linear gradients of acetonitrile in water containing 0.10% (v/v) formic acid. The mass spectrometer was calibrated on a weekly basis and mass tolerance of 5 ppm was used.

Series [3] has as its system Caco-2 cells (clone C2BBe1). As to conditions: human, Caco-2.
Series [4] can be described thus: in vitro. As to conditions: human, plasma.

In the case of `CC(C)OC(=O)OC[C@H]1O[C@@](C#N)(c2ccc3c(N)ncnn23)[C@@H]2OC(=O)CCCC(=O)O[C@@H]21` [Compound C2, ((7aR,8R,10R,10aR)-10-(4-aminopyrrolo[2,1-f][1,2,4]triazin-7-yl)-10-cyano-2,6-dioxooctahydro-2H-furo[3,4-b][1,4]dioxonin-8-yl)methyl isopropyl carbonate], the values for the EC50 with SARS-CoV2-NLuc and in the series with RSV-Luc5 were 9600 nM and 3350 nM, respectively. Also, the CC50 in the series “in vitro [1]” was > 50 µM. Besides, the figures for the half-life at 2 μM in “in vitro [2]” and in “in vitro [4]” were 0.616 min and 7.8 min, respectively. Further, the “Caco2 A to B” value in series [3] is 1.66. Also, the “Caco2 B to A” value in series [3] was 7.32.
As to `CC1(C)CC(=O)O[C@H]2[C@@H](OC(=O)C1)[C@](C#N)(c1ccc3c(N)ncnn13)O[C@@H]2COC(=O)OC1CCOCC1` [Compound C33, ((7aR,8R,10R,10aR)-10-(4-aminopyrrolo[2,1-f][1,2,4]triazin-7-yl)-10-cyano-4,4-dimethyl-2,6-dioxooctahydro-2H-furo[3,4-b][1,4]dioxonin-8-yl)methyl (tetrahydro-2H-pyran-4-yl) carbonate], in the series on SARS-CoV2-NLuc, the EC50 was > 50000 nM. Moreover, the EC50 with RSV-Luc5 was > 50000 nM. Further, in “in vitro [1]”, the CC50 was > 50 µM. This compound registered a half-life at 2 μM in “in vitro [2]” of 29 min. In addition, in series [3], the “Caco2 A to B” value is on record as 0.41 and the “Caco2 B to A” value is on record as 3.17. Besides, in “in vitro [4]”, the half-life worked out at 609 min.
For `CC(C)(OC(=O)OC[C@H]1O[C@@](C#N)(c2ccc3c(N)ncnn23)[C@@H]2OC(=O)CCCC(=O)O[C@@H]21)c1ccncc1` [Compound C17, ((7aR,8R,10R,10aR)-10-(4-aminopyrrolo[2,1-f][1,2,4]triazin-7-yl)-10-cyano-2,6-dioxooctahydro-2H-furo[3,4-b][1,4]dioxonin-8-yl)methyl (2-(pyridin-4-yl)propan-2-yl) carbonate], the values for the EC50 in the series on SARS-CoV2-NLuc and in the series on RSV-Luc5 were 29900 nM and > 50000 nM, respectively. Besides, in “in vitro [1]”, the CC50 was > 50 µM. For the same compound, in series [3], the “Caco2 A to B” value amounted to 2.97. In addition, the “Caco2 B to A” value in series [3] was found to be 15.86. The compound also gave a half-life at 2 μM in “in vitro [4]” of 31.1 min.
In the case of `CC(C)OC(=O)OC[C@H]1O[C@@](C#N)(c2ccc3c(N)ncnn23)[C@@H]2OC(=O)OCCCCCCOC(=O)O[C@@H]21` [Compound C53, ((12aR,13R,15R,15aR)-15-(4-aminopyrrolo[2,1-f][1,2,4]triazin-7-yl)-15-cyano-2,11-dioxodecahydrofuro[3,4-d][1,3,6,8]tetraoxacyclotetradecin-13-yl)methyl isopropyl carbonate], the EC50 in the series on SARS-CoV2-NLuc was 9660 nM; with RSV-Luc5, 1330 nM. In the series “in vitro [1]”, the CC50 was > 50 µM. The half-life at 2 μM in the series “in vitro [2]” was found to be 0.691 min; in “in vitro [4]” it was 317 min. For the same compound, the “Caco2 A to B” value in series [3] was determined as 9.28. For the same compound, the “Caco2 B to A” value in series [3] was 15.92.
`COC(=O)[C@H]([C@@H](C)OC(=O)OC[C@H]1O[C@@](C#N)(c2ccc3c(N)ncnn23)[C@@H]2OC(=O)CC(C)(C)CC(=O)O[C@@H]21)N(C)C` [Compound C48, (2S,3R)-methyl 3-(((((7aR,8R,10R,10aR)-10-(4-aminopyrrolo[2,1-f][1,2,4]triazin-7-yl)-10-cyano-4,4-dimethyl-2,6-dioxooctahydro-2H-furo[3,4-b][1,4]dioxonin-8-yl)methoxy)carbonyl)oxy)-2-(dimethylamino)butanoate]: the EC50 in the series with SARS-CoV2-NLuc and in the series with RSV-Luc5 was > 50000 nM throughout. For the same compound, the CC50 in the series “in vitro [1]” is > 50 µM. For the same compound, the half-life at 2 μM in the series “in vitro [2]” is 29.5 min; in the series “in vitro [4]”, 20.3 min. In addition, the “Caco2 A to B” value in series [3] was determined as 0.22. Besides, the “Caco2 B to A” value in series [3] stood at 1.81.
Turning to `CCOC(=O)OC[C@H]1O[C@@](C#N)(c2ccc3c(N)ncnn23)[C@@H]2OC(=O)CC(C)(C)CC(=O)O[C@@H]21` [Compound C14, ((7aR,8R,10R,10aR)-10-(4-aminopyrrolo[2,1-f][1,2,4]triazin-7-yl)-10-cyano-4,4-dimethyl-2,6-dioxooctahydro-2H-furo[3,4-b][1,4]dioxonin-8-yl)methyl ethyl carbonate], the EC50 in the series with SARS-CoV2-NLuc and in the series with RSV-Luc5 was > 50000 nM throughout. Besides, in the series “in vitro [1]”, the CC50 is > 50 µM. In addition, the half-life at 2 μM stood at 4.03 min in the series “in vitro [2]” and 27.1 min in “in vitro [4]”. Moreover, the “Caco2 A to B” value in series [3] was 4.27. For the same compound, the “Caco2 B to A” value in series [3] turned out to be 8.55.
For the compound `COC(=O)[C@H]([C@@H](C)OC(=O)OC[C@H]1O[C@@](C#N)(c2ccc3c(N)ncnn23)[C@@H]2OC(=O)CCCC(=O)O[C@@H]21)N(C)C` [Compound C31, (2S,3R)-methyl 3-(((((7aR,8R,10R,10aR)-10-(4-aminopyrrolo[2,1-f][1,2,4]triazin-7-yl)-10-cyano-2,6-dioxooctahydro-2H-furo[3,4-b][1,4]dioxonin-8yl)methoxy)carbonyl)oxy)-2-(dimethylamino)butanoate 2,2,2-trifluoroacetate], the EC50 in the series with SARS-CoV2-NLuc was 6060 nM; in the series on RSV-Luc5, 9190 nM. Moreover, in the series “in vitro [1]”, the CC50 is > 50 µM. Further, the half-life at 2 μM in the series “in vitro [2]” came out at 0.57 min; in the series “in vitro [4]”, 15.5 min. For the same compound, the “Caco2 A to B” value in series [3] amounted to 0.49. The “Caco2 B to A” value in series [3] worked out at 5.62.
For the compound `CC(C)OC(=O)OC[C@H]1O[C@@](C#N)(c2ccc3c(N)ncnn23)[C@@H]2OC(=O)CN(C)CC(=O)O[C@@H]21` [Compound C4, ((7aR,8R,10R,10aR)-10-(4-aminopyrrolo[2,1-f][1,2,4]triazin-7-yl)-10-cyano-4-methyl-2,6-dioxooctahydro-2H-furo[3,4-b][1,4,7]dioxazonin-8-yl)methyl isopropyl carbonate], the results for the EC50 in the series with SARS-CoV2-NLuc and in the series on RSV-Luc5 were 6730 nM and 3120 nM, respectively. Also, the CC50 in “in vitro [1]” was > 50 µM. In addition, the half-life at 2 μM stood at 0.694 min in “in vitro [2]” and 65.6 min in “in vitro [4]”. Besides, in series [3], the “Caco2 A to B” value is reported as 0.023. In addition, the “Caco2 B to A” value in series [3] is listed as 2.
With `CC(C)OC(=O)OC[C@H]1O[C@@](C#N)(c2ccc3c(N)ncnn23)[C@@H]2OC(=O)CC(C)(C)CC(=O)O[C@@H]21` [Compound C3, ((7aR,8R,10R,10aR)-10-(4-aminopyrrolo[2,1-f][1,2,4]triazin-7-yl)-10-cyano-4,4-dimethyl-2,6-dioxooctahydro-2H-furo[3,4-b][1,4]dioxonin-8-yl)methyl isopropyl carbonate], the EC50 in the series with SARS-CoV2-NLuc is 12000 nM; in the series on RSV-Luc5, > 50000 nM. The CC50 in the series “in vitro [1]” is > 50 µM. The half-life at 2 μM in “in vitro [2]” worked out at 6 min; in the series “in vitro [4]” it was 1240 min. In addition, the “Caco2 A to B” value in series [3] amounted to 5.9. Also, in series [3], the “Caco2 B to A” value was 7.3.
For `CC(C)[C@H](NC(=O)OC(C)(C)C)C(=O)OC[C@H]1O[C@@](C#N)(c2ccc3c(N)ncnn23)[C@@H]2OC(=O)CCCC(=O)O[C@@H]21` [Compound C58, ((7aR,8R,10R,10aR)-10-(4-aminopyrrolo[2,1-f][1,2,4]triazin-7-yl)-10-cyano-2,6-dioxooctahydro-2H-furo[3,4-b][1,4]dioxonin-8-yl)methyl (tert-butoxycarbonyl)-L-valinate], the EC50 is 5120 nM with SARS-CoV2-NLuc and 2840 nM in the series with RSV-Luc5. The CC50 in “in vitro [1]” was > 50 µM. In addition, the half-life at 2 μM in the series “in vitro [2]” was determined as 0.577 min; in “in vitro [4]”, 26.4 min.
Take `N#C[C@@]1(c2ccc3c(N)ncnn23)O[C@H](COC(=O)OCCN2CCOCC2)[C@H]2OC(=O)CCCC(=O)O[C@H]21` [Compound C19, ((7aR,8R,10R,10aR)-10-(4-aminopyrrolo[2,1-f][1,2,4]triazin-7-yl)-10-cyano-2,6-dioxooctahydro-2H-furo[3,4-b][1,4]dioxonin-8-yl)methyl (2-morpholinoethyl) carbonate]: the EC50 stood at 4310 nM with SARS-CoV2-NLuc and 8620 nM in the series on RSV-Luc5. Also, the CC50 in “in vitro [1]” was > 50 µM. Also, the half-life at 2 μM in “in vitro [2]” amounted to 0.552 min; in “in vitro [4]” it was 90.3 min.
Take `CC(C)COC(=O)OC[C@H]1O[C@@](C#N)(c2ccc3c(N)ncnn23)[C@@H]2OC(=O)CC(C)(C)CC(=O)O[C@@H]21` [Compound C35, ((7aR,8R,10R,10aR)-10-(4-aminopyrrolo[2,1-f][1,2,4]triazin-7-yl)-10-cyano-4,4-dimethyl-2,6-dioxooctahydro-2H-furo[3,4-b][1,4]dioxonin-8-yl)methyl isobutyl carbonate]: the EC50 with SARS-CoV2-NLuc and with RSV-Luc5 was > 50000 nM each time. Also, in “in vitro [1]”, the CC50 is > 50 µM. Further, the values for the half-life at 2 μM in “in vitro [2]” and in the series “in vitro [4]” were 0.609 min and 73.6 min, respectively.

As a reminder, the EC50 is the concentration at which the effect is half-maximal. A word on the CC50: it is the concentration giving 50% cytotoxicity. For orientation: half-life means the time needed for the level to fall by half in the phase considered.
